Assay results reported in patent publication US9211310B2, “Use of a Chinese medicine composition in preparing medicaments for treating secondary prevention of myocardial infarction” (TASLY PHARMACEUTICAL GROUP CO., LTD, priority 2010, dated 2015).

Tested on: patients after acute myocardial infarction
Test: Life quality, Seattle Angina Questionnaire (SAQ), same clinical trial
Assay type: in vivo, human
Settings: 1 month after treatment
Excerpt: 3508 patients who were in accordance with the diagnostic standards of AMI for 28 days to 2 years and differentiated as Qi deficiency and blood stagnation syndrome by TCM were studied. 0.5 g Chinese medicine composition prepared by the method of EXAMPLE 1 (Coded as QSYQ) was administrated half an hour after meal, 3 times per day.
There were 19 questions in the Seattle angina questionnaire (SAQ), including 5 parts: physical limitation (PL), anginal stability (AS), anginal frequency (AF), treatment satisfaction (TS) and disease perception (DP). After being given necessary explanation by doctors, the questions were answered independently by patients.
They included the overall survival time, angina pectoris score, TCM symptom score and life quality score, where angina pectoris score, TCM symptom score and life quality score were evaluated at randomization, in 1st, 3rd, 6th, 9th, 12th month after treatment and 18th month after follow-up.
All evaluation results of SAQ were described during the period of observation, and Wilcoxon rank sum test was used for inter-group comparison.
The evaluation results in the SAQ were depicted in different observations, and inter-group comparison was tested by Wilcoxon Rank-sum test.

CC(=O)Oc1ccccc1C(=O)O [Control group, aspirine]
SAQ 2nd question: Clearly increased, % of cases (FAS): (0.92%) | SAQ 2nd question: Clearly increased, cases (FAS): 16 | SAQ 2nd question: Clearly reduced, % of cases (FAS): (16.50%) | SAQ 2nd question: Clearly reduced, cases (FAS): 287 | SAQ 2nd question: Same, % of cases (FAS): (49.05%) | SAQ 2nd question: Same, cases (FAS): 853 | SAQ 2nd question: Slightly increased, % of cases (FAS): (3.05%) | SAQ 2nd question: Slightly increased, cases (FAS): 53 | SAQ 2nd question: Slightly reduced, % of cases (FAS): (30.48%) | SAQ 2nd question: Slightly reduced, cases (FAS): 530 | SAQ 3rd question: 1-2 times per week, % of cases (FAS): (30.48%) | SAQ 3rd question: 1-2 times per week, cases (FAS): 530 | SAQ 3rd question: 1-3 times per day, % of cases (FAS): (3.05%) | SAQ 3rd question: 1-3 times per day, cases (FAS): 53 | SAQ 3rd question: <1 time per week, % of cases (FAS): (16.50%) | SAQ 3rd question: <1 time per week, cases (FAS): 287 | SAQ 3rd question: No onset, % of cases (FAS): (0.00%) | SAQ 3rd question: No onset, cases (FAS): 0 | SAQ 3rd question: ≧3 times per week, % of cases (FAS): (49.05%) | SAQ 3rd question: ≧3 times per week, cases (FAS): 853 | SAQ 3rd question: ≧4 times per day, % of cases (FAS): (0.92%) | SAQ 3rd question: ≧4 times per day, cases (FAS): 16 | SAQ Question 1-3: Mildly limited, number of patients (FAS): 126 | SAQ Question 1-3: Mildly limited, percent of patients (FAS): (7.23%) | SAQ Question 1-3: Moderately limited, number of patients (FAS): 34 | SAQ Question 1-3: Moderately limited, percent of patients (FAS): (1.95%) | SAQ Question 1-3: Not limited, number of patients (FAS): 1261 | SAQ Question 1-3: Not limited, percent of patients (FAS): (72.39%) | SAQ Question 1-3: Other reasons, number of patients (FAS): 9 | SAQ Question 1-3: Other reasons, percent of patients (FAS): (0.52%) | SAQ Question 1-3: Severely limited, number of patients (FAS): 5 | SAQ Question 1-3: Severely limited, percent of patients (FAS): (0.29%) | SAQ Question 1-3: Slightly limited, number of patients (FAS): 307 | SAQ Question 1-3: Slightly limited, percent of patients (FAS): (17.62%) | SAQ Question 1-4: Mildly limited, number of patients (FAS): 349 | SAQ Question 1-4: Mildly limited, percent of patients (FAS): (20.05%) | SAQ Question 1-4: Moderately limited, number of patients (FAS): 159 | SAQ Question 1-4: Moderately limited, percent of patients (FAS): (9.13%) | SAQ Question 1-4: Not limited, number of patients (FAS): 618 | SAQ Question 1-4: Not limited, percent of patients (FAS): (35.50%) | SAQ Question 1-4: Other reasons, number of patients (FAS): 12 | SAQ Question 1-4: Other reasons, percent of patients (FAS): (0.69%) | SAQ Question 1-4: Severely limited, number of patients (FAS): 35 | SAQ Question 1-4: Severely limited, percent of patients (FAS): (2.01%) | SAQ Question 1-4: Slightly limited, number of patients (FAS): 568 | SAQ Question 1-4: Slightly limited, percent of patients (FAS): (32.62%) | SAQ Question 1-5: Mildly limited, number of patients (FAS): 315 | SAQ Question 1-5: Mildly limited, percent of patients (FAS): (18.09%) | SAQ Question 1-5: Moderately limited, number of patients (FAS): 196 | SAQ Question 1-5: Moderately limited, percent of patients (FAS): (11.26%) | SAQ Question 1-5: Not limited, number of patients (FAS): 648 | SAQ Question 1-5: Not limited, percent of patients (FAS): (37.22%) | SAQ Question 1-5: Other reasons, number of patients (FAS): 10 | SAQ Question 1-5: Other reasons, percent of patients (FAS): (0.57%) | SAQ Question 1-5: Severely limited, number of patients (FAS): 32 | SAQ Question 1-5: Severely limited, percent of patients (FAS): (1.84%) | SAQ Question 1-5: Slightly limited, number of patients (FAS): 540 | SAQ Question 1-5: Slightly limited, percent of patients (FAS): (31.02%) | SAQ Question 1-9: Mildly limited, % of cases (FAS): (16.68%) | SAQ Question 1-9: Mildly limited, cases (FAS): 284 | SAQ Question 1-9: Moderately limited, % of cases (FAS): (21.02%) | SAQ Question 1-9: Moderately limited, cases (FAS): 358 | SAQ Question 1-9: Not limited, % of cases (FAS): (2.88%) | SAQ Question 1-9: Not limited, cases (FAS): 49 | SAQ Question 1-9: Other reasons, % of cases (FAS): (6.17%) | SAQ Question 1-9: Other reasons, cases (FAS): 105 | SAQ Question 1-9: Severely limited, % of cases (FAS): (41.93%) | SAQ Question 1-9: Severely limited, cases (FAS): 714 | SAQ Question 1-9: Slightly limited, % of cases (FAS): (11.33%) | SAQ Question 1-9: Slightly limited, cases (FAS): 193 | SAQ 2nd question: Clearly increased, % of cases (PP): (0.54%) | SAQ 2nd question: Clearly increased, cases (PP): 8 | SAQ 2nd question: Clearly reduced, % of cases (PP): (16.75%) | SAQ 2nd question: Clearly reduced, cases (PP): 248 | SAQ 2nd question: Same, % of cases (PP): (49.63%) | SAQ 2nd question: Same, cases (PP): 735 | SAQ 2nd question: Slightly increased, % of cases (PP): (2.90%)
